According to patent US20120045532A1, “Anticancer Methods Employing Extracts of Gleditsia sinensis Lam” (priority 2008, published 2012):

Assays:
[1] = system: phospho-mTOR, total mTOR, RAPTOR and RICTOR in LR fractions of Hs578T; experiment: Western blot of lipid raft fractions: mTOR complex components; format: cell-based, human; settings: Hs578T cells; 70 μg/ml BN107 or 110 μM oleanolic acid, 4 hours
Procedure: (§1) As Akt/mTOR, the main survival signaling pathway, has been implicated to take place on LRs, it was hypothesized that BN107 and similarly OA disrupted the signaling of these complexes on LRs. The fractions collected from sucrose-density—centrifugation of BN107 or OA treated Hs578T or MCF7 lysates were dialyzed and concentrated. Same amounts of protein from LR (fractions 3-5), non-LR plasma membrane (f6), and cytosolic (f8) fractions were analyzed by Western blotting. The levels of RAPTOR, Akt, 4E-BP, p70S6 kinase were first observed in these collected fractions; and it was confirmed that they were all enriched in the LR fractions (data not shown). The levels of phospho-mTOR, total mTOR; as well as the mTORC1 and mTORC2 complex partner RAPTOR and RICTOR, respectively, were then measured in BN107 or OA treated Hs578T cells. […]
(§2) A modified procedure for density gradient centrifugation using Nycodenz from Sigma-Aldrich (St. Louis, Mo.) was used to fractionate Triton X-100-soluble and Triton X-100-insoluble membrane and cytoskeletal subdomains and complexes. […] Total of 10 fractions and control input lysate were analyzed for the distribution of proteins by Western blot. […] The fractions were dialyzed against PBS to remove the gradient sugars and concentrated using Amicon Ultra 4 centrifugal filter device (Millipore) before protein quantitation (BCA reagent, Thermo Fisher). […]

[2] = system: mTOR/FRAP1, phospho-mTOR, RAPTOR, RICTOR, Akt in Hs578T cells; experiment: Western analysis of total cellular lysate; format: cell-based, human; settings: ER− Hs578T cells (data not shown)
Source text: To ascertain that these signaling changes occurred at LRs indeed translated into the whole-cell level. […] Consistent with the data shown within the lipid raft fractions, levels of total mTOR/FRAP1, phospho-mTOR, RAPTOR, and RICTOR were all decreased within one hour of BN107 treatment, resulting in minimal mTORC1 and mTORC2 activities to phosphorylate 4E-BP and p70S6 kinase, and Ser473-Akt, respectively. The decrease in total protein levels of mTOR/FRAP1, RAPTOR and RICTOR occurred post-transcriptionally as the levels of their corresponding mRNAs were not modulated by BN107 or OA treatment in the sensitive ER− Hs578T cells (data not shown). […] These effects were presumably due to their cholesterol binding/stripping effect on LRs, as addition of exogenous cholesterol seemed to reverse these events (FIG. 8C).
Cell extracts, obtained by scraping cells in PBS in the presence of protein phosphatase and protease inhibitors and lysing with ice-cold RIPA buffer, were loaded on the SDS-PAGE at 25-30 μg per lane. Same amounts of proteins […] were precipitated from lipid raft fractions and loaded onto 3-7% TA gel or 4-12% Bis-Tris gels. Separated proteins were transferred onto nitrocellulose membrane (iBlot, Invitrogen) and used for probing with specific antibodies following manufacturer's instruction. Blots were reused several times after mild stripping (Restore, ThermoFisher) when necessary. […]

mTORC2 / Akt = experiment: Ser473-phosphorylated Akt in LR fractions as read-out for mTORC2 activity (Western); format: cell-based, human; settings: Hs578T cells; 70 μg/ml BN107 or 110 μM oleanolic acid, 4 hr
Procedure: (§3) In addition, as the same pool of mTOR/FRAP1 polypeptide is shared between the mTORC1 and mTORC2 complex and the mTORC2 complex partner RICTOR was decreased in the lipid rafts of BN107 or OA-treated Hs578T cells, it was hypothesized that mTORC2 activity would be inhibited as well. Given the recent discovery that mTORC2 is the main kinase phosphorylating Akt at Ser473, and Akt signaling has been implicated to take place on LRs, the level of Ser473 phosphorylated Akt was analyzed in LR fractions as a read-out for mTORC2 activity. […] Conversely, addition of exogenous cholesterol restored these signaling events disrupted by BN107 or OA (FIG. 8C). […] The levels of transferrin receptor (TR) marking the non-LR plasma membrane region and GAPDH marking the cytosolic fractions were not affected in both cell lines by either BN107 or OA treatment.
as §2

Hs578T = experiment: Annexin V/PI binding (cell death/apoptosis), flow cytometry; format: cell-based; settings: for effect of addition of cholesterol on induced death: Hs578T cells, 70 μg/ml BN107, 0.2 mg/ml BZL101 or 500 nM taxol with 500 μM cholesterol, 18 hours
Procedure: (§4) ERα plays a role in BN107-induced apoptosis. In Table 1-1 below are the results of experiments in which cells were treated with BN107 and harvested after 24 hours for analysis of Annexin V/PI binding. Three independent experiments were conducted for each data point.
(§5) BN107 induced apoptosis selectively in ER− breast cancer cells and introducing expression of ERα protected these cells against BN107 Prior studies have shown that ethanolic extract of G. sinensis is cytotoxic to a number tumor cell lines by inducing cytotoxicity. A wider panel of solid-tumor cell lines, derived from various origins, is analyzed herein. Sub-confluent cultures were treated with 70 μg/ml of BN107 for 18 hours and cell death were analyzed by annexinV/PI binding followed by flow cytometry. […] It is evident that BN107 induced cell death in tumor lines derived from various origins to different extent. […] These experiments sought to determine if there was correlative relationship between genotypic characteristics of the cells versus sensitivity. As shown in Table 2-1, it appeared that cells lacking ER expression were highly sensitive to BN107; while cells containing functional ER were relatively insensitive to BN107 at this dose. The death induced by BN107 in ER− lines was apoptotic in nature that was primarily mediated by the mitochondrial pathway, as evident from Annexin V binding, dissipation of mitochondrial potential, cytosolic release of cytochrome C, activation of caspases, and DNA fragmentation.
(§6) All the cell lines used were purchased from ATCC. Cells were treated with 70 μg/ml of BN107 (calculated based on freeze-dry weight). The dose is determined based on the EC50 of each batch in killing 50% of Hs578T or MDA-MB-231 cells 18 hours after treatment.
(§7) Cell survival was measured using FACS analysis of AnnexinV-alexa 488/PI bound cells following the manufacturer's instruction (Invitrogen). Mitochondrial transmembrane potential (MTP) was determined using JC-1 dye (Invitrogen) in live cells and analyzed using flow cytomery. Caspase 3 and 9 activities were measured using specific caspase peptide inhibitors (Calbiochem) conjugated to FITC followed by flow cytometry analysis. Cytosolic cytochrome C release were determined by separating the cytosol from mitochondria (Biovision) and cytochrome C released in cytosol was shown using immunoblotting.

MDA-MB-231 = experiment: as above; format: cell-based; settings: Homo sapiens, MDA-MB-231, read-out: EC50 for MDA-MB-231
Procedure: as §4, §5, §6, §7

[3] = system: mTORC1/mTORC2/Akt signaling in MCF7 cells; experiment: Western blot of lipid raft fractions, resistant cells; format: cell-based, human
Procedure: as §3, §2

mTORC1 = mTORC1 activity by phosphorylation of 4E-BP and p70S6 kinase (Western); format: cell-based, human; settings: lipid raft region of Hs578T cells; 70 μg/ml BN107 or 110 μM oleanolic acid, 4 hr
Procedure: as §1, §2

[4] = animals; cited from earlier work

SMILES | levels of phospho-mTOR, total mTOR, RAPTOR and RICTOR in LR fractions [1] | mRNA levels of mTOR/FRAP1, RAPTOR and RICTOR [2] | level of Ser473-phosphorylated Akt in LR fractions (mTORC2 read-out) (mTORC2 / Akt) | total level of Akt on LRs (mTORC2 / Akt) | EC50 (Hs578T; Homo sapiens, Hs-578T, read-out: EC50 for Hs578T) | effect of addition of cholesterol on induced death (Hs578T) | EC50 (MDA-MB-231) | changes in mTORC1/mTORC2/Akt signaling on LRs [3] | mTORC1 activity (phosphorylation of 4E-BP and p70S6 kinase) (mTORC1) | toxicity at anti-tumor doses [4]
CC1(C)CC[C@]2(C(=O)O)CC[C@]3(C)C(=CC[C@@H]4[C@@]5(C)CC[C@H](O)C(C)(C)[C@@H]5CC[C@]43C)[C@@H]2C1 [OA, oleanolic acid] | significantly decreased | not modulated | decreased | no effect | 110 µM | protected cells specifically and completely | 125 µM | None of these changes were observed | greatly inhibited | minimal toxicity
CC(=O)O[C@H]1C(=O)[C@@]2(C)[C@H]([C@H](OC(=O)c3ccccc3)[C@]3(O)C[C@H](OC(=O)[C@H](O)[C@@H](NC(=O)c4ccccc4)c4ccccc4)C(C)=C1C3(C)C)[C@]1(OC(C)=O)CO[C@@H]1C[C@@H]2O [taxol, paclitaxel, reference compound] |  |  |  |  |  | no effect |  |  |  | 
